According to patent EP1975159A1, “2,3,4,9-Tetrahydro-1H-carbazoles” (Bayer Schering Pharma Aktiengesellschaft, priority 2007, dated 2008):
pIC50: −log10 of the molar value.

Target: T1, human FSH receptor (Homo sapiens, UniProt P23945)
T1 construct: expressed in transfected cells; host or cells: CHO cells (hFSHR clone 16)
T1 sequence (P23945 18-695): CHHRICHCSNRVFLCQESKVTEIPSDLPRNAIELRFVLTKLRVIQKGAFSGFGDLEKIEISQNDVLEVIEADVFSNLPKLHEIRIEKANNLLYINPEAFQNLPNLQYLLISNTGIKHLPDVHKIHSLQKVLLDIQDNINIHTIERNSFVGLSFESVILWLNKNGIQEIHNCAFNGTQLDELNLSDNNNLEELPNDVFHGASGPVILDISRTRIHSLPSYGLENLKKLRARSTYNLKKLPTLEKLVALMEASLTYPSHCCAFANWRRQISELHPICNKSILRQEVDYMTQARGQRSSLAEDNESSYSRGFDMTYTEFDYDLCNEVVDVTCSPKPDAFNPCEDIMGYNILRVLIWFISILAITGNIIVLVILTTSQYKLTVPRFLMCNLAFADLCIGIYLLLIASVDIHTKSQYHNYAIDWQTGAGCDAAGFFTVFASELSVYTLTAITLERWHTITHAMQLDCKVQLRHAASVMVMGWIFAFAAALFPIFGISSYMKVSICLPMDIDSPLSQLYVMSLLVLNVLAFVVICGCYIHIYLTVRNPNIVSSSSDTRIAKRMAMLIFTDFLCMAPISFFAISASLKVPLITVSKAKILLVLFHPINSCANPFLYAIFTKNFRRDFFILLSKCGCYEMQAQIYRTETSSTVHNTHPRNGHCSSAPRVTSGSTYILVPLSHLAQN
Assay: HTRF assay for measuring cAMP in cells (FSH antagonism)
Assay type: cell-based
Conditions: FSH-antagonistic effect; CHO cells stably transfected with the human FSH receptor (hFSHR clone 16); in the presence of 1 e-9 mol/l hFSH; 37°C for 2h
Experimental: HTRF assay for measuring cAMP in cells
The method is based on a competitive immunoassay between native cAMP, which has been produced by the cells, and cAMP which is labelled with XL665. The tracer binding was visualized by a monoclonal antibody, anti-cAMP labelled with cryptate [HTRF = homogeneous time-resolved fluorescence].
The specific signal is inversely proportional to the cAMP concentration of the samples employed.
The 665nm/ 620nm fluorescence ratio was evaluated.
The following material was used: 96-well plates for the tissue culture, 96-well plates with black edge and black base (e.g. Fluotrac 600 from Greiner), 96-well plates for the substance dilutions of polypropylene and cAMP Femtomolar (4000wells Kit, CIS Bio International # 62AM1PEC).
The following reagents were used: BSA (bovine serum albumin) Fraction V protease-free, IBMX (3-isobutyl-1-methylxanthine), hFSH (human follicle stimulating hormone), Triton X-100 analytical grade, potassium fluoride analytical grade, G 418 (Geneticin) and Accutase.
Buffer 1 (washing and testing buffer) contained PBS, 1 mM CaCl2, 1 mM MgCl2, 0.2% glucose; 0.1% BSA, 1 mM IBMX.
Buffer 2 (2x lysis buffer) contained 1% Triton X-100 in PBS (without CaCl2 and MgCl2).
Buffer 3 (assay buffer) contained 50 mM potassium phosphate buffer (pH 7.0); 800 mM potassium fluoride; 0.2% BSA (always added fresh).
On day 1, the cells were seeded in 96-well plates (3x10^4 cells per well hFSHR clone 16 cells (CHO cells stably transfected with the human FSH receptor in 150 µl of medium). The next day, test substance dilutions were made up. For this purpose, all the substances were diluted in ice-cold buffer 1 (with or without hFSH), and the substance dilutions were placed on ice until applied to the cells.
The cell supernatant was then aspirated off, and the cells were washed 2x with 200 µl of buffer 1. The cells were treated with 60 µl of the appropriate substance concentrations at 37°C for 2h. The cells were then lysed with 60 µl of buffer 2 (put onto the supernatant) (on a plate shaker at RT for 30 min).
The test conjugates (XL-665 and anti-cAMP cryptate) were diluted in buffer 3 in accordance with the manufacturers' information. The actual mixture for measurement was pipetted into a black 96-well plate (in each case 15 µl of the cell lysate diluted with 35 µl of buffer 1; firstly 25 µl of XL-665 conjugate were pipetted and, after 10 min, 25 µl of the anti-cAMP cryptate were added). This is followed by incubation at RT for 90 minutes. The measurement was carried out in a PheraStar (BMG).
Tissue culture conditions
• 1) hFSHr clone 16 Ham's F12 PSG 10% FCS 700 µg/ml G 418 (Geneticin) from PAA.
Dose-effect curve (hFSH) for the human receptor: 1 e-8, 3e-9, 1 e-9, 3e-10, 1 e-1 0, 3e-11, 1 e-11, 3e-12 mol/l.
The test substances were employed in suitable dilutions in the absence (test for agonism) and in the presence of 1 e-9 mol/l hFSH.
The values of the well ratio were averaged and then entered directly in SigmaPlot versus the concentrations. The maximum and minimum values were determined for each plate, and half the difference is to be regarded as IC50.

Row | SMILES | pIC50
1 | COc1ccc2nc(-c3ccccc3)cc(C(=O)NC3(CO)CCc4[nH]c5cc(Cl)c(F)cc5c4C3)c2c1 (centres unmarked) [Example 13, 6-Methoxy-2-phenyl-quinoline-4-carboxylic acid (7-chloro-6-fluoro-3-hydroxymethyl-2,3,4,9-tetrahydro-1 H-carbazol-3-yl)-amide] | 5.10
2 | CNC(=O)c1ccc(-c2ccc(OC(C)C)c(C(=O)NC3(CO)CCc4[nH]c5ccc(Cl)cc5c4C3)c2)cc1Cl (centres unmarked) [Example 34, 3'-Chloro-4-isopropoxy-biphenyl-3,4'-dicarboxylic acid 3-[(6-chloro-3-hydroxymethyl-2,3,4,9-tetrahydro-1 H-carbazol-3-yl)-amide] 4'-methylamide] | 5.82
3 | COc1ccc(-c2ccc(OC(C)C)c(C(=O)NC3(CO)CCc4[nH]c5c(C)ccc(C)c5c4C3)c2)cc1OC (centres unmarked) [Example 19, 4-Isopropoxy-3',4'-dimethoxy-biphenyl-3-carboxylic acid (3-hydroxymethyl-5,8-dimethyl-2,3,4,9-tetrahydro-1H-carbazol-3-yl)-amide] | 5.40
4 | CNC(=O)c1ccc(-c2ccc(OC(C)C)c(C(=O)NC3(CO)CCc4[nH]c5ccc(C)cc5c4C3)c2)cc1Cl (centres unmarked) [Example 32, 3'-Chloro-4-isopropoxy-biphenyl-3,4'-dicarboxylic acid 3-[(3-hydroxymethyl-6-methyl-2,3,4,9-tetrahydro-1H-carbazol-3-yl)-amide] 4'-methylamide] | 5.52

The next compounds have a higher pIC50 than those just listed; values first:

Row | pIC50 | SMILES
5 | 6.05 | CNC(=O)c1ccc(-c2ccc(OC(C)C)c(C(=O)NC3(CO)CCc4[nH]c5c(Cl)ccc(Cl)c5c4C3)c2)cc1Cl (centres unmarked) [Example 25, 3'-Chloro-4-isopropoxy-biphenyl-3,4'-dicarboxylic acid 3-[(5,8-dichloro-3-hydroxymethyl-2,3,4,9-tetrahydro-1 H-carbazol-3-yl)-amide] 4'-methyl-amide]
6 | 6.12 | Cc1ccc2[nH]c3c(c2c1Cl)CC(CO)(NC(=O)c1cc(-c2cc4ccccc4o2)ccc1OC(C)C)CC3 (centres unmarked) [Example 40, 5-Benzofuran-2-yl-N-(5-chloro-3-hydroxymethyl-6-methyl-2,3,4,9-tetrahydro-1H-carbazol-3-yl)-2-isopropoxy-benzamide]
7 | 6.70 | CNC(=O)c1ccc(-c2ccc(OC(C)C)c(C(=O)NC3(CO)CCc4[nH]c5c(Cl)cccc5c4C3)c2)cc1Cl (centres unmarked) [Example 30, 3'-Chloro-4-isopropoxy-biphenyl-3,4'-dicarboxylic acid 3-[(8-chloro-3-hydroxymethyl-2,3,4,9-tetrahydro-1H-carbazol-3-yl)-amide] 4'-methylamide]
8 | 7.15 | CNC(=O)c1ccc(-c2ccc(OC(C)C)c(C(=O)NC3(CO)CCc4[nH]c5ccc(F)cc5c4C3)c2)cc1Cl (centres unmarked) [Example 33, 3'-Chloro-4-isopropoxy-biphenyl-3,4'-dicarboxylic acid 3-[(6-fluoro-3-hydroxymethyl-2,3,4,9-tetrahydro-1H-carbazol-3-yl)-amide] 4'-methylamide]
